This is an account of results in patent US7872036B2, “3-triazolylphenyl sulfide derivative and insecticide, miticide and nematicide containing it as an active ingredient” (Kumiai Chemical Industry Co., Ltd., priority 2004, dated 2011).

The subject of test [1] is two-spotted spider mites. The experiment in a line: Miticidal test on two-spotted spider mites (by soil drenching). It counts as in vivo, Tetranychus urticae. The arrangement: scale not given here. Conditions: active ingredient 100 ppm, 5 ml per 100 g soil, 25° C., 13 days. Here is the method: Wettable powders were prepared in accordance with Formulation Example 2 and diluted with water to an active ingredient concentration of 100 ppm. 100 g of the soil in cups with soybean seedlings which had been inoculated with imago two-spotted spider mites were drenched with 5 ml of the resulting solutions. The treated seedlings were placed in a […] chamber at 25° C. for 13 days, and the mite survivors were counted for calculation of the miticidal value by using Equation 2.

Test [2] relates to two-spotted spider mites. The experiment in a line: Miticidal test on two-spotted spider mites (by dipping). It counts as in vivo, Tetranychus urticae. The arrangement: scale not given here. Conditions: dipping of soybean seedlings, active ingredient 500 ppm, 25° C., 13 days. Here is the method:
Wettable powders were prepared in accordance with Formulation Example 2 and diluted with water to an active ingredient concentration of 500 ppm. Soybean seedlings which had been inoculated with imago two-spotted spider mites were dipped in the resulting solutions and dried in air. The treated seedlings were placed in a thermostatic chamber at 25° C. for 13 days, and the mite survivors were counted for calculation of the miticidal value by using Equation 2. The test was carried out by one series system.

Test [3] relates to brown planthoppers. The experiment in a line: Insecticidal test on brown planthoppers. The note with it: active ingredient 500 ppm, germinating rice immersed, 4th-instar larvae, 25° C., 6 days. It counts as in vivo, Nilaparvata lugens. Here is the method:
Wettable powders were prepared in accordance with Formulation Example 2 and diluted with water to an active ingredient concentration of 500 ppm. Germinating rice was immersed in the resulting solutions and put in a plastic cup with a capacity of 60 ml. Ten 4th-instar larvae of brown planthoppers were released to the cup, and the cup was covered and placed in a thermostatic chamber at 25° C. for 6 days, and the survivors were counted for calculation of the insecticidal degree by using Equation 1. The test was carried out by one series system.

On to `Cc1cc(Cl)c(-n2nc(C(F)(F)F)nc2N)cc1[S+]([O-])CC(F)(F)F` (stereo not drawn) [Compound 8, [5-(5-amino-3-trifluoromethyl-1,2,4-triazolyl)-4-chloro-2-methylphenyl]2,2,2-trifluoroethyl sulfoxide], for which the Miticidal value in test [1] and in test [2] was 100 in each case.

Turning to `O=Cc1ccc(-n2cnc(C(F)(F)F)n2)cc1[S+]([O-])CC(F)(F)F` (stereo not drawn) [a, reference compound], the Miticidal value came out at 0 in test [1] and 100 in test [2].

Consider `Cc1cc(F)c(-n2nc(C(F)(F)F)nc2NC(C)C)cc1[S+]([O-])CC(F)(F)F` (stereo not drawn) [Compound 167], for which the Miticidal value in test [1] and in test [2] was 100 throughout. Besides, the “Insecticidal degree (%)” value in test [3] is reported as 100%.

Consider `Cc1cc(F)c(-n2nc(SC(F)(F)F)nc2NC(=O)C(F)(F)F)cc1SCC(F)(F)F` [Compound 99], for which the Miticidal value in test [1] and in test [2] was 100 each time. In addition, the “Insecticidal degree (%)” value in test [3] came to 100%.

For the compound `CNc1nc(C(F)(F)F)nn1-c1ccc(C)c(SCC(F)(F)F)c1` [Compound 37], the Miticidal value in test [1] and in test [2] was 100 in each case. The “Insecticidal degree (%)” value in test [3] was determined as 100%.

Regarding `CCc1nc(N)n(-c2cc([S+]([O-])CC(F)(F)F)c(C)cc2F)n1` (stereo not drawn) [Compound 117], the Miticidal value in test [1] and in test [2] was 100 each time. Further, in test [3], the “Insecticidal degree (%)” value is reported as 100%.

`CNc1nc(C(F)(F)F)nn1-c1cc([S+]([O-])CC(F)(F)F)c(C)cc1C` (stereo not drawn) [Compound 147]: the Miticidal value in test [1] and in test [2] was 100 in each case.

On to `Cc1cc(F)c(-n2nc(SC(F)(F)C(F)(F)F)nc2N)cc1[S+]([O-])CC(F)(F)F` (racemic) [Compound 177], for which the Miticidal value in test [1] and in test [2] was 100 each time.

On to `CCNc1nc(C(F)(F)F)nn1-c1cc([S+]([O-])CC(F)(F)F)c(C)cc1F` (stereo not drawn) [Compound 60], for which the Miticidal value in test [1] and in test [2] was 100 each time. In test [3], the “Insecticidal degree (%)” value is recorded as 100%.

With `COC(=O)Nc1nc(C(F)(F)F)nn1-c1cc([S+]([O-])CC(F)(F)F)c(C)cc1F` (stereo not drawn) [Compound 80], the Miticidal value in test [1] and in test [2] was 100 in each case. The “Insecticidal degree (%)” value in test [3] was 100%.

For `Cc1cc(C)c([S+]([O-])CC(F)(F)F)cc1-n1nc(C(F)(F)F)nc1N` (stereo not drawn) [Compound 56], the Miticidal value in test [1] and in test [2] was 100 in each case.

Turning to `CCC(C)(C)c1nc(N)n(-c2cc([S+]([O-])CC(F)(F)F)c(C)cc2F)n1` (stereo not drawn) [Compound 119], the Miticidal value in test [1] and in test [2] was 100 each time. Further, the “Insecticidal degree (%)” value in test [3] stood at 90%.

Turning to `Cc1cc(F)c(-n2nc(SC(F)(F)F)nc2N)cc1[S+]([O-])CC(F)(F)F` (stereo not drawn) [Compound 32], the Miticidal value in test [1] and in test [2] was 100 throughout. For the same compound, the “Insecticidal degree (%)” value in test [3] is listed as 100%.

For the compound `CNc1nc(C(F)(F)F)nn1-c1cc([S+]([O-])CC(F)(F)F)c(C)cc1Cl` (stereo not drawn) [Compound 98], the Miticidal value in test [1] and in test [2] was 100 throughout.

Consider `Cc1cc(F)c(-n2nc(SC(F)F)nc2N)cc1[S+]([O-])CC(F)(F)F` (stereo not drawn) [Compound 28], for which the Miticidal value in test [1] and in test [2] was 100 throughout. Moreover, the “Insecticidal degree (%)” value in test [3] came to 100%.

Consider `CC(=O)Nc1nc(C(C)(C)C)nn1-c1cc([S+]([O-])CC(F)(F)F)c(C)cc1F` (stereo not drawn) [Compound 113], for which the Miticidal value in test [1] and in test [2] was 100 in each case. Further, the “Insecticidal degree (%)” value in test [3] came out at 100%.

As to `Cc1cc(F)c(-n2nc(CC(C)(C)C)nc2N)cc1[S+]([O-])CC(F)(F)F` (stereo not drawn) [Compound 107], the Miticidal value in test [1] and in test [2] was 100 each time.

As to `Cc1ccc(-n2nc(C(F)(F)F)nc2NC(=O)C(F)(F)F)cc1[S+]([O-])CC(F)(F)F` (stereo not drawn) [Compound 153], the Miticidal value in test [1] and in test [2] was 100 throughout. Besides, the “Insecticidal degree (%)” value in test [3] is 100%.

For `CCC(=O)Nc1nc(C(F)(F)F)nn1-c1cc([S+]([O-])CC(F)(F)F)c(C)cc1F` (racemic) [Compound 187], the Miticidal value in test [1] worked out at 99; in test [2], 100. Also, the “Insecticidal degree (%)” value in test [3] came out at 100%.

In the case of `[O-][S+](CC(F)(F)F)c1cc(-n2cnc(C(F)(F)F)n2)ccc1CF` (stereo not drawn) [b, reference compound], the Miticidal value in test [1] is recorded as 0; in test [2], 99.

In the case of `Cc1cc(F)c(-n2nc(C(F)(F)F)nc2N)cc1[S+]([O-])CC1CC1` (stereo not drawn) [Compound 4], the Miticidal value in test [1] and in test [2] was 100 each time. In test [3], the “Insecticidal degree (%)” value came out at 90%.

Regarding `CC(=O)Nc1nc(SCC(F)(F)F)nn1-c1cc([S+]([O-])CC(F)(F)F)c(C)cc1F` (stereo not drawn) [Compound 155], the Miticidal value in test [1] and in test [2] was 100 each time. In addition, in test [3], the “Insecticidal degree (%)” value amounted to 90%.

As for `CNC(=O)Nc1nc(C(F)(F)F)nn1-c1cc([S+]([O-])CC(F)(F)F)c(C)cc1F` (stereo not drawn) [Compound 169], the Miticidal value in test [1] and in test [2] was 100 in each case. In test [3], the “Insecticidal degree (%)” value came to 100%.

Consider `N#Cc1ccc(-n2nc(C(F)(F)F)nc2N)cc1[S+]([O-])CC(F)(F)F` (stereo not drawn) [Compound 121], for which the Miticidal value in test [1] and in test [2] was 100 each time.

Consider `Cc1cc(F)c(-n2nc(C(C)(C)C)nc2N)cc1[S+]([O-])CC(F)(F)F` (stereo not drawn) [Compound 145], for which the Miticidal value in test [1] and in test [2] was 100 each time.

Take `C#CCNc1nc(SCC(F)(F)F)nn1-c1cc([S+]([O-])CC(F)(F)F)c(C)cc1F` (racemic) [Compound 185]: the Miticidal value in test [1] and in test [2] was 100 throughout. In addition, the “Insecticidal degree (%)” value in test [3] is 100%.

`Cc1cc(F)c(-n2nc(C(C)C)nc2N)cc1[S+]([O-])CC(F)(F)F` (stereo not drawn) [Compound 111]: the Miticidal value in test [1] and in test [2] was 100 in each case. Further, the “Insecticidal degree (%)” value in test [3] is on record as 100%.

As for `Cc1cc(F)c(-n2nc(C(F)(F)F)nc2NC(=O)N(C)C)cc1[S+]([O-])CC(F)(F)F` (stereo not drawn) [Compound 84], the Miticidal value in test [1] and in test [2] was 100 throughout. Moreover, the “Insecticidal degree (%)” value in test [3] came out at 100%.

`Cc1cc(F)c(-n2nc(C(F)(F)F)nc2NC(=O)C(F)(F)Cl)cc1[S+]([O-])CC(F)(F)F` (racemic) [Compound 192]: the Miticidal value in test [1] and in test [2] was 100 throughout. Further, the “Insecticidal degree (%)” value in test [3] came out at 100%.

For `Cc1cc(F)c(-n2nc(C(C)(C)C#N)nc2N)cc1[S+]([O-])CC(F)(F)F` (stereo not drawn) [Compound 104], the Miticidal value in test [1] and in test [2] was 100 each time.

For `Cc1cc(F)c(-n2nc(C(C(F)(F)F)C(F)(F)F)nc2N)cc1[S+]([O-])CC(F)(F)F` (racemic) [Compound 183], the Miticidal value in test [1] and in test [2] was 100 in each case.
